From ChEMBL document CHEMBL1201862, “PubChem BioAssay data set” (2004) come the findings set out here.

Assay in all cases: NCI anticancer screen, dose series, 48 h
Experiment [1] concerns A498.
Experiment [2] relates to A549.
Experiment [3] deals with BT-549.
Experiment [4] relates to CCRF-CEM.
Experiment [5] deals with DU-145.
Experiment [6] relates to EKVX.
Experiment [7] concerns HOP-92.
Experiment [8] deals with LOX IMVI.
Experiment [9] concerns M14.
Experiment [10] concerns MDA-MB-435.
In experiment [11] the test system is MDA-N.
In experiment [12] the test system is NCI-H522.
Experiment [13] concerns RPMI-8226.
Experiment [14] relates to RXF 393.
The test system of experiment [15] is SF-295.
The subject of experiment [16] is SK-MEL-28.
In experiment [17] the test system is SK-OV-3.
The test system of experiment [18] is SN12C.
The subject of experiment [19] is SNB-75.
Experiment [20] relates to HCC 2998.

The structures appear in SMILES notation.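 48-hour exposure; five concentrations; linearly interpolated endpoints. At the GI50, growth is halved.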 Calls of active or inactive are those of the source. No stated cut-off is given here; in the data, active = GI50 up to about 1.1 µM and inactive = higher.

As for `O=c1c2ccccc2sc2c(CO)ccc(NCCN3CCCCC3)c12`, the GI50 in [1] was 3.15 µM (inactive); in [2], 3.46 µM (inactive); in [3], 10.8 µM (inactive); in experiment [4], 1.15 µM (inactive); in experiment [5] it was 2.54 µM (inactive); in [6], 4.66 µM (inactive). Moreover, the GI50 was 5.83 µM (inactive) in experiment [7]; 2.86 µM (inactive) in [8]; 1.93 µM (inactive) in [9]; 2.64 µM (inactive) in experiment [10]; 3.08 µM (inactive) in experiment [11]; 1.58 µM (inactive) in experiment [12]. For the same compound, the GI50 was 1.91 µM (inactive) in experiment [13]; 2.39 µM (inactive) in experiment [14]; 3.61 µM (inactive) in experiment [15]; 2.9 µM (inactive) in experiment [16]; 3.91 µM (inactive) in [17]; 3.27 µM (inactive) in [18]. For the same compound, the GI50 in experiment [19] was 5.77 µM (inactive).
`Cc1ccc(S(=O)(=O)Oc2cc(N)c3c(n2)CCC3)cc1`: the GI50 in experiment [1] was 69.2 µM (inactive); in experiment [2], > 100 µM (inactive); in experiment [3] it was > 100 µM (inactive); in experiment [4], 64.1 µM (inactive); in [5] it was > 100 µM (inactive); in experiment [6], 42.3 µM (inactive). In addition, the GI50 in [20] is > 100 µM (inactive); in experiment [7], 52.6 µM (inactive); in experiment [8], > 100 µM (inactive); in experiment [9], > 100 µM (inactive); in experiment [10], > 100 µM (inactive); in [11], > 100 µM (inactive). Also, the GI50 in experiment [13] was 24.3 µM (inactive); in experiment [14], > 100 µM (inactive); in experiment [15], 53.8 µM (inactive); in [16], > 100 µM (inactive); in experiment [17], > 100 µM (inactive); in experiment [18] it was > 100 µM (inactive). In addition, the GI50 in experiment [19] was > 100 µM (inactive).
On to `Nc1nc(SCC(=O)c2ccc(Br)cc2)c2nc[nH]c2n1`, for which the GI50 was 51.6 µM (inactive) in experiment [1]; 55 µM (inactive) in [2]; 27 µM (inactive) in experiment [3]; 6.28 µM (inactive) in experiment [4]; 27.5 µM (inactive) in experiment [5]; 38.5 µM (inactive) in [6]. For the same compound, the GI50 was 17.3 µM (inactive) in experiment [7]; 31.4 µM (inactive) in [8]; 40.5 µM (inactive) in [9]; 35.2 µM (inactive) in [10]; 34.8 µM (inactive) in experiment [11]; 17.8 µM (inactive) in [12]. Also, the GI50 in experiment [13] was 17.1 µM (inactive); in experiment [14], 41.9 µM (inactive); in [15], 34.8 µM (inactive); in experiment [16], 65.2 µM (inactive); in experiment [17], 34.5 µM (inactive); in [18] it was 34.4 µM (inactive). The GI50 in experiment [19] is 28 µM (inactive).
For `CCOc1nnnc2[nH]cnc12`, the GI50 in [1], in experiment [2], in [3], in [5], in experiment [6] and in experiment [20] was > 100 µM (inactive) in each case. The GI50 in [8], in experiment [9], in [10], in experiment [11], in [12] and in [13] was > 100 µM (inactive) in each case. The GI50 in [14], in experiment [15], in experiment [16], in experiment [17], in [18] and in experiment [19] was > 100 µM (inactive) each time.
Consider `COc1ccc2c(c1C)C(=O)C(O)(CC=C(C)C)O2` (centres undefined), for which the GI50 in experiment [1], in experiment [2], in [3], in [4], in experiment [5] and in experiment [6] was > 100 µM (inactive) in each case. Also, the GI50 in [20], in [8], in experiment [9], in experiment [10], in experiment [11] and in [12] was > 100 µM (inactive) throughout. The GI50 in experiment [13], in [15], in experiment [16], in experiment [17], in experiment [18] and in experiment [19] was > 100 µM (inactive) in each case.
`O=C(/C(=N\Nc1ccc([N+](=O)[O-])cc1[N+](=O)[O-])NC12CC3CC(CC(C3)C1)C2)C(Br)C(=O)c1ccccc1` (centres undefined): the GI50 was 2.71 µM (inactive) in experiment [1]; 3.33 µM (inactive) in experiment [2]; 4.44 µM (inactive) in experiment [3]; 2.67 µM (inactive) in experiment [4]; 4.48 µM (inactive) in experiment [5]; 3.56 µM (inactive) in experiment [6]. The GI50 was 3.98 µM (inactive) in experiment [20]; 2.79 µM (inactive) in [7]; 2.43 µM (inactive) in [8]; 2.86 µM (inactive) in experiment [9]; 3.52 µM (inactive) in experiment [10]; 4.69 µM (inactive) in [11]. The GI50 in [13] is 1.84 µM (inactive); in [14], 2.78 µM (inactive); in experiment [15] it was 3.99 µM (inactive); in [16], 9.31 µM (inactive); in [17], 2.75 µM (inactive); in experiment [18], 3.12 µM (inactive). Also, the GI50 in experiment [19] was 2.48 µM (inactive).
For `Cc1c(F)c(NC(=O)CN(C)C)c2c(=O)cc(-c3ccc(NC(=O)CN(C)C)c(F)c3)oc2c1F`, the GI50 in [1] was 1.35 µM (inactive); in experiment [2], 18.6 µM (inactive); in experiment [3], 17.9 µM (inactive); in [4], 21.5 µM (inactive); in [5] it was 13.6 µM (inactive); in experiment [20] it was 0.678 µM (active). The GI50 in experiment [8] was 14.9 µM (inactive); in [9], 16.3 µM (inactive); in experiment [10] it was 12.6 µM (inactive); in [11], 16.4 µM (inactive); in experiment [12], 17.5 µM (inactive); in experiment [13] it was 16.8 µM (inactive). Moreover, the GI50 is 12.8 µM (inactive) in experiment [14]; 15.5 µM (inactive) in experiment [15]; 21.5 µM (inactive) in experiment [16]; 16.8 µM (inactive) in [17]; 17.8 µM (inactive) in experiment [18].
Take `O=C1CSC(c2c[nH]c3ccccc23)N1c1cccc(Cl)c1` (centres undefined): the GI50 is 60.1 µM (inactive) in experiment [1]; 56.1 µM (inactive) in [2]; 43.9 µM (inactive) in experiment [3]; 31.9 µM (inactive) in experiment [4]; > 100 µM (inactive) in [5]; > 100 µM (inactive) in experiment [6]. Also, the GI50 in [20] was 54.3 µM (inactive); in experiment [7] it was 60.4 µM (inactive); in [9] it was 49.1 µM (inactive); in experiment [10] it was 33.6 µM (inactive); in experiment [11] it was 36.9 µM (inactive); in experiment [13], 25.7 µM (inactive). Further, the GI50 in experiment [14] is > 100 µM (inactive); in experiment [15] it was 44.1 µM (inactive); in experiment [16], > 100 µM (inactive); in [17], > 100 µM (inactive); in [18] it was 52.2 µM (inactive); in [19] it was 46.7 µM (inactive).
Regarding `CC1=NN(c2nc(N)nc(-c3sccc3N)n2)C(C)(C)C1`, the GI50 in [1] is > 100 µM (inactive); in [2], 35.8 µM (inactive); in experiment [3] it was 56.1 µM (inactive); in experiment [4] it was 43.6 µM (inactive); in experiment [5] it was > 100 µM (inactive); in [6], 82.6 µM (inactive). In addition, the GI50 is > 100 µM (inactive) in experiment [20]; > 100 µM (inactive) in [7]; 90.4 µM (inactive) in experiment [8]; 23.9 µM (inactive) in experiment [9]; 45 µM (inactive) in experiment [10]; 75.9 µM (inactive) in experiment [11]. For the same compound, the GI50 was 32.7 µM (inactive) in experiment [12]; 31.8 µM (inactive) in [13]; 92.5 µM (inactive) in experiment [15]; 40.2 µM (inactive) in experiment [16]; > 100 µM (inactive) in [17]; > 100 µM (inactive) in experiment [18]. In addition, the GI50 in experiment [19] is 36.3 µM (inactive).
On to `CC1CCCc2c(CC3CC(=O)NC(=O)C3)nc(N)nc21` (centres undefined), for which the GI50 in [1], in experiment [2], in experiment [3], in experiment [4], in [5] and in experiment [6] was > 100 µM (inactive) in each case. Further, the GI50 in experiment [20], in [7], in experiment [8], in experiment [9], in experiment [10] and in [11] was > 100 µM (inactive) throughout. Further, the GI50 in experiment [13], in experiment [14], in experiment [15], in experiment [16], in experiment [17] and in experiment [18] was > 100 µM (inactive) throughout. In experiment [19], the GI50 was 95.7 µM (inactive).
As to `COc1cc(C2SCCCCCCCCCCSC(c3ccc(O)c(OC)c3)SCCCCCCCCCCS2)ccc1O` (centres undefined), the GI50 in experiment [1] is > 100 µM (inactive); in experiment [2], > 100 µM (inactive); in experiment [3], > 100 µM (inactive); in experiment [4], < 0.01 µM (active); in experiment [5] it was > 100 µM (inactive); in experiment [6], > 100 µM (inactive). Moreover, the GI50 in experiment [7], in experiment [8], in experiment [9], in [10], in experiment [11] and in experiment [12] was > 100 µM (inactive) in each case. Further, the GI50 in experiment [13], in experiment [14], in experiment [15], in [16], in experiment [17] and in experiment [18] was > 100 µM (inactive) each time. Besides, the GI50 in experiment [19] was 52.6 µM (inactive).
